From US7312031B1, “Alpha-complementation viral fusion assay” (The Salk Institute for Biological Studies, priority 2002, dated 2007)

Key:
[1] = test system: fusion of 293T.CD4.Ω with 293T/SF33; test: alpha-complementation fusion assay, 293T.CD4.Ω with 293T/SF33; format: cell-based, human; settings: FIG. 5 and 6; SF33 Env (CXCR4-specific); 293T.CD4.Ω stable line
Experimental: Remove the plates from the water bath, spin 4000 rpm (Eppendorf tabletop centrifuge) for 1 minute to firmly pellet cells, aspirate medium, and add 100 μl of Galacto-Star lysis buffer (Perkin-Elmer). Mix well and incubate at room temperature for 5 minutes. Spin lysates 5 minutes at 4000 rpm and transfer 10 μl to a black 96-well plate (Costar). Add 100 μl of Galacto-Star substrate using a multi-channel pipettor. After 60 minutes, read β-gal activity in plates in a Packard TopCount luminometer for 15 s/well.
Transfect 293 cells with expression vector for HIV envelope protein, B-gal-α and HIV-1 Rev. Vectors used express CCR5-specific Envs (JFRL, ADA) or CXCR4-specific Envs (SF33 or JC2) driven by the cytomegalovirus promoter. Transfect the cells by lipofection or calcium phosphate standard methods.
Harvest 293-CD4.CCR5.omega cells with PBS/EDTA and count.
Prepare a microtiter plate by adding 2.5×10^5 293-CD4.CCR5.omega cells to each well with a multi-channel pipettor or robot in a volume of 50 μl of medium. Add inhibitors at different concentrations to each of the wells, in duplicate. […]

[2] = test system: fusion of 293T.CD4.Ω/CCR5 with 293T/ADA; test: alpha-complementation fusion assay, 293T.CD4.Ω/CCR5 with 293T/ADA; format: cell-based, human; settings: FIG. 7-9, ADA Env (CCR5-specific)
Experimental: FIG. 7 depicts the fusion of 293T.CD4.Ω/CCR5 with 293T/ADA in the presence of TAK-779.
293T (ATCC cat #CRL-1573) or HeLa (ATCC cat #CCL-2) cells (2.5×10^6) were seeded in 10 cm plates 24 hours prior to transfection. The next morning, cells were transfected with 21 μg of DNA, 7 μg pSCTZ-alpha-N85, 7 μg pRSV-Rev (Hope et al., Proc. Nat'l. Acad. Sci. U.S.A. 87: 7787-91 (1990)) and 7 μg of envelope expression vector (pSV-ADA, pSV-JRFL (Deng et al., Nature 381: 661-666 (1996)), or pCAGGS-SF33 (York-Higgins et al., J. Virol. 64: 4016-4020 (1990)). […]
Remove the plates from the water bath, spin 4000 rpm (Eppendorf tabletop centrifuge) for 1 minute to firmly pellet cells, aspirate medium, and add 100 μl of Galacto-Star lysis buffer (Perkin-Elmer). […] After 60 minutes, read β-gal activity in plates in a Packard TopCount luminometer for 15 s/well. […]
Two days later, remove the transfected cells from plates by incubating with phosphate-buffered saline containing 5 mM EDTA. The cells are then counted on hemocytometer. […]
After four hours, read β-gal activity as in Example 1.

## c1cc(CN2CCCNCCNCCCNCC2)ccc1CN1CCCNCCNCCCNCC1 [AMD3100]
[1]
  inhibition of fusion reaction: inhibits the fusion reaction in a concentration-dependent manner

## Cc1ccc(-c2ccc3c(c2)C=C(C(=O)Nc2ccc(C[N+](C)(C)C4CCOCC4)cc2)CCC3)cc1.[Cl-] [TAK-779]
[2]
  inhibition of fusion reaction: inhibits the fusion reaction in a concentration-dependent manner
